The results in this text go back to PubChem BioAssay AID256 (DTP/NCI, 2004).

Structures are written as SMILES. Values joined by “and” are separate entries in the source; they are usually repeats but may differ in a detail not shown here. Equal values may be shown once. Inconclusive results and toxic doses are left out.

The experiment has as its system CD2F1 mice, L1210 leukemia ip, survival T/C. The experiment in a line: NCI In Vivo Anticancer Drug Screen. Data for tumor model L1210 Leukemia (intraperitoneal) in CD2F1 (CDF1) mice. Conditions: higher = longer survival. The essentials:
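Mice carrying a transplanted tumor received test compound or vehicle alone. The value is the measurement in the treated group divided by that in the vehicle-treated control group.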

Where [1] appears, read: endpoint: mean survival time, dose: 100.0 mg/kg/injection, schedule: Q01DX009 (ip), vehicle: saline with Tween-80.
Where [2] appears, read: endpoint: mean survival time, dose: 200.0 mg/kg/injection, schedule: Q01DX009 (ip), vehicle: saline with Tween-80.
Setting [3] is: endpoint: mean survival time, dose: 25.0 mg/kg/injection, schedule: Q01DX009 (ip), vehicle: saline with Tween-80.
The mark [4] stands for this setting: endpoint: mean survival time, dose: 50.0 mg/kg/injection, schedule: Q01DX009 (ip), vehicle: saline with Tween-80.
The mark [5] stands for this setting: endpoint: mean survival time, dose: 100.0 mg/kg/injection, schedule: Q04DX003 (ip), vehicle: saline with Tween-80.
Setting [6] is: endpoint: mean survival time, dose: 200.0 mg/kg/injection, schedule: Q04DX003 (ip), vehicle: saline with Tween-80.
Setting [7] is: endpoint: mean survival time, dose: 75.0 mg/kg/injection, schedule: Q01DX001 (ip), vehicle: saline.
Setting [8] is: endpoint: mean survival time, dose: 150.0 mg/kg/injection, schedule: Q01DX001 (ip), vehicle: saline.
Setting [9] is: endpoint: mean survival time, dose: 300.0 mg/kg/injection, schedule: Q01DX001 (ip), vehicle: saline.
The mark [10] stands for this setting: endpoint: mean survival time, dose: 400.0 mg/kg/injection, schedule: Q04DX003 (ip), vehicle: saline with Tween-80.

On to `c1ccc(Cn2cccc2N=Nc2ccccc2)cc1`, for which the T/C is 98 % of control (endpoint: mean survival time, dose: 100.0 mg/kg/injection, schedule: Q01DX001 (ip), vehicle: other); 101 % of control (endpoint: mean survival time, dose: 200.0 mg/kg/injection, schedule: Q01DX001 (ip), vehicle: other); 98 % of control (endpoint: mean survival time, dose: 400.0 mg/kg/injection, schedule: Q01DX001 (ip), vehicle: other).
Turning to `C/C(CC(C)C)=N\NC(=O)CNC(=O)c1ccccc1`, the T/C was 90 % of control under setting [1]; 92 % of control under setting [2]; 96 % of control (endpoint: mean survival time, dose: 400.0 mg/kg/injection, schedule: Q01DX009 (ip), vehicle: saline with Tween-80).
On to `CCCCCCCCCCCCNCCC#N`, for which the T/C by setting is: under setting [3], 100 % of control; under setting [4], 101 % of control; under setting [1], 95 % of control; under setting [5], 93 % of control; under setting [6], 87 % of control.
Consider `O=c1[nH]cnc2c1ncn2C1OC(CO)C(O)C1O` (centres undefined), for which the T/C was 100 % of control (endpoint: mean survival time, dose: 50.0 mg/kg/injection, schedule: Q01DX001 (ip), vehicle: saline); 100 % of control (endpoint: mean survival time, dose: 100.0 mg/kg/injection, schedule: Q01DX001 (ip), vehicle: saline); 97 % of control (endpoint: mean survival time, dose: 200.0 mg/kg/injection, schedule: Q01DX001 (ip), vehicle: saline); 100 % of control (endpoint: mean survival time, dose: 400.0 mg/kg/injection, schedule: Q01DX001 (ip), vehicle: saline).
As for `CCC[n+]1c(C)oc2ccc(-c3ccccc3)cc21`, the T/C was 100 % of control under setting [5] and 101 % of control under setting [6].
Turning to `CCCCN1C(=O)C(=O)N(c2cc(C)c(C)cc2C)C1=O`, the T/C is 100 % of control (endpoint: mean survival time, dose: 12.5 mg/kg/injection, schedule: Q01DX009 (ip), vehicle: saline with Tween-80); 96 % of control under setting [3]; 92 % of control under setting [4]; 90 % of control under setting [1].
`[O]=[Zr]`: the T/C reads like this: under setting [7], 94 % of control; under setting [8], 97 % of control; under setting [9], 98 % of control.
Consider `CCCCN1C(=O)C(=O)N(c2ccc(NC(C)=O)cc2)C1=O`, for which the T/C under setting [4] is 93 % of control, the T/C under setting [1] is 89 % of control and the T/C under setting [2] is 89 % of control.
Regarding `Nc1cc(=O)c2nnn(C3OC(CO)C(O)C3O)c2[nH]1` (centres undefined), the T/C is 102 % of control (endpoint: mean survival time, dose: 12.5 mg/kg/injection, schedule: Q01DX005 (ip), vehicle: water); 98 % of control (endpoint: mean survival time, dose: 25.0 mg/kg/injection, schedule: Q01DX005 (ip), vehicle: water); 94 % of control (endpoint: mean survival time, dose: 50.0 mg/kg/injection, schedule: Q01DX005 (ip), vehicle: water); 87 % of control (endpoint: mean survival time, dose: 100.0 mg/kg/injection, schedule: Q01DX005 (ip), vehicle: water); 105 % of control (endpoint: mean survival time, dose: 200.0 mg/kg/injection, schedule: Q01DX005 (ip), vehicle: water); 90 % of control (endpoint: mean survival time, dose: 400.0 mg/kg/injection, schedule: Q01DX005 (ip), vehicle: water).
Take `CCOC(=O)C1CC=CCC1C(=O)OCC` (centres undefined): the T/C was 111 % of control (endpoint: mean survival time, dose: 35.0 mg/kg/injection, schedule: Q04DX003 (ip), vehicle: other); 94 % of control (endpoint: mean survival time, dose: 65.0 mg/kg/injection, schedule: Q04DX003 (ip), vehicle: other); 103 % of control (endpoint: mean survival time, dose: 100.0 mg/kg/injection, schedule: Q04DX003 (ip), vehicle: other); 100 % of control (endpoint: mean survival time, dose: 150.0 mg/kg/injection, schedule: Q04DX003 (ip), vehicle: other).
On to `Cc1ccc(S(=O)(=O)N2CCC(C(=O)O)(c3ccccc3)CC2)cc1`, for which the T/C was 113 % of control under setting [5], 98 % of control under setting [6] and 95 % of control under setting [10].
In the case of `NC(N)=NC(N)=Nc1cc(Cl)c(Cl)cc1Cl`, the T/C by setting is: under setting [5], 96 % of control; under setting [6], 96 % of control; under setting [10], 98 % of control.
`COc1ccc2nc(-c3ccc(F)cc3)cc(C(=O)O)c2c1`: the T/C under setting [5] is 97 % of control, the T/C under setting [6] was 101 % of control and the T/C under setting [10] is 101 % of control.
Consider `CC(C)COCCCN`, for which the T/C (endpoint: mean survival time, dose: 100.0 mg/kg/injection, schedule: Q04DX003 (ip), vehicle: saline) is 98 % of control.
In the case of `c1ccc(N=C2SCCS2)cc1`, the T/C (endpoint: mean survival time, dose: 3.13 mg/kg/injection, schedule: Q01DX001 (ip), vehicle: Klucel (hydroxypropylcellulose) (HPC)) is 93 % of control; the T/C (endpoint: mean survival time, dose: 6.25 mg/kg/injection, schedule: Q01DX001 (ip), vehicle: Klucel (hydroxypropylcellulose) (HPC)) was 97 % of control; the T/C (endpoint: mean survival time, dose: 12.5 mg/kg/injection, schedule: Q01DX001 (ip), vehicle: Klucel (hydroxypropylcellulose) (HPC)) was 108 % of control.
On to `Cc1ccnc(NS(=O)(=O)c2ccc(N=Nc3nc4[nH]c(N)nc(=S)c4[nH]3)cc2)n1`, for which the T/C runs as follows: (endpoint: mean survival time, dose: 0.2 mg/kg/injection, schedule: Q01DX009 (ip), vehicle: Klucel (hydroxypropylcellulose) (HPC)) 96 % of control; (endpoint: mean survival time, dose: 0.4 mg/kg/injection, schedule: Q01DX009 (ip), vehicle: Klucel (hydroxypropylcellulose) (HPC)) 106 % of control; (endpoint: mean survival time, dose: 0.8 mg/kg/injection, schedule: Q01DX009 (ip), vehicle: Klucel (hydroxypropylcellulose) (HPC)) 106 % of control; (endpoint: mean survival time, dose: 1.56 mg/kg/injection, schedule: Q01DX009 (ip), vehicle: Klucel (hydroxypropylcellulose) (HPC)) 203 % of control; (endpoint: mean survival time, dose: 1.6 mg/kg/injection, schedule: Q01DX009 (ip), vehicle: Klucel (hydroxypropylcellulose) (HPC)) 117 % of control; (endpoint: mean survival time, dose: 3.13 mg/kg/injection, schedule: Q01DX009 (ip), vehicle: Klucel (hydroxypropylcellulose) (HPC)) 150 % of control. Further, the T/C (endpoint: mean survival time, dose: 6.25 mg/kg/injection, schedule: Q01DX009 (ip), vehicle: Klucel (hydroxypropylcellulose) (HPC)) was 117 % of control.
Regarding `NC(=N\O)/C(N)=N/O.[Cl][Pt][Cl]`, the T/C (endpoint: median survival time, dose: 3.12 mg/kg/injection, schedule: Q04DX003 (ip), vehicle: saline) is 100 % of control; the T/C (endpoint: median survival time, dose: 6.25 mg/kg/injection, schedule: Q04DX003 (ip), vehicle: saline) was 103 % of control; the T/C (endpoint: median survival time, dose: 12.5 mg/kg/injection, schedule: Q04DX003 (ip), vehicle: saline) is 97 % of control; the T/C (endpoint: median survival time, dose: 25.0 mg/kg/injection, schedule: Q04DX003 (ip), vehicle: saline) is 103 % of control; the T/C (endpoint: median survival time, dose: 50.0 mg/kg/injection, schedule: Q04DX003 (ip), vehicle: saline) was 109 % of control; the T/C (endpoint: median survival time, dose: 100.0 mg/kg/injection, schedule: Q04DX003 (ip), vehicle: saline) is 112 % of control. In addition, the T/C (endpoint: median survival time, dose: 200.0 mg/kg/injection, schedule: Q04DX003 (ip), vehicle: saline) is 123 % of control.
For the molecule `O=C([CH-]C(=O)C(F)(F)F)c1ccccc1.O=C([CH-]C(=O)C(F)(F)F)c1ccccc1.O=C([CH-]C(=O)C(F)(F)F)c1ccccc1.O=C([CH-]C(=O)C(F)(F)F)c1ccccc1.[Eu+3].c1ccncc1`, the T/C is, setting by setting: (endpoint: mean survival time, dose: 12.5 mg/kg/injection, schedule: Q01DX009 (ip), vehicle: Klucel (hydroxypropylcellulose) (HPC)) 95 % of control and 101 % of control; (endpoint: mean survival time, dose: 25.0 mg/kg/injection, schedule: Q01DX009 (ip), vehicle: Klucel (hydroxypropylcellulose) (HPC)) 101 % of control; (endpoint: mean survival time, dose: 50.0 mg/kg/injection, schedule: Q01DX009 (ip), vehicle: Klucel (hydroxypropylcellulose) (HPC)) 89 % of control and 106 % of control; (endpoint: mean survival time, dose: 100.0 mg/kg/injection, schedule: Q01DX009 (ip), vehicle: Klucel (hydroxypropylcellulose) (HPC)) 97 % of control and 109 % of control; (endpoint: mean survival time, dose: 200.0 mg/kg/injection, schedule: Q01DX009 (ip), vehicle: Klucel (hydroxypropylcellulose) (HPC)) 95 % of control and 100 % of control; (endpoint: mean survival time, dose: 400.0 mg/kg/injection, schedule: Q01DX009 (ip), vehicle: Klucel (hydroxypropylcellulose) (HPC)) 97 % of control and 100 % of control.
For the molecule `C[Si](OP(=O)(O[Si](C)(c1ccccc1)c1ccccc1)N(CCCl)CCCl)(c1ccccc1)c1ccccc1`, the T/C reads like this: (endpoint: mean survival time, dose: 15.63 mg/kg/injection, schedule: Q01DX001 (ip), vehicle: distilled water + Tween-80) 104 % of control; (endpoint: mean survival time, dose: 31.25 mg/kg/injection, schedule: Q01DX001 (ip), vehicle: distilled water + Tween-80) 97 % of control; (endpoint: mean survival time, dose: 62.5 mg/kg/injection, schedule: Q01DX001 (ip), vehicle: distilled water + Tween-80) 101 % of control; (endpoint: mean survival time, dose: 125.0 mg/kg/injection, schedule: Q01DX001 (ip), vehicle: distilled water + Tween-80) 95 % of control; (endpoint: mean survival time, dose: 250.0 mg/kg/injection, schedule: Q01DX001 (ip), vehicle: distilled water + Tween-80) 97 % of control; (endpoint: mean survival time, dose: 500.0 mg/kg/injection, schedule: Q01DX001 (ip), vehicle: distilled water + Tween-80) 115 % of control.
Take `O=C(Nc1ccccc1[N+](=O)[O-])c1ccc(C(=O)Nc2ccccc2[N+](=O)[O-])cc1`: the T/C was 87 % of control under setting [7], 96 % of control under setting [8] and 91 % of control under setting [9].
